Data as given in patent publication US20250091982A1, “Pharmaceutical Composition, Methods of Use Thereof for Treating Cocaine Addiction, and Novel Use of Hausp K444R Point Mutant Mouse” (PHARWAR BIOTECHNOLOGY, INC. PTE. LTD., priority 2022, published 2025).

What was measured:
SIAH1 = target: T1, SIAH1 (Homo sapiens, UniProt Q8IUQ4); test: E3-ligase auto ubiquitination assay (K48-linked polyubiquitination of HAUSP mediated by SIAH1); type: biochemical; conditions: 37° C., 1 hour, Western blot with Ub-K48 antibody, compared to vehicle; FIG. 14A, 14B
T1 sequence (Q8IUQ4 1-282): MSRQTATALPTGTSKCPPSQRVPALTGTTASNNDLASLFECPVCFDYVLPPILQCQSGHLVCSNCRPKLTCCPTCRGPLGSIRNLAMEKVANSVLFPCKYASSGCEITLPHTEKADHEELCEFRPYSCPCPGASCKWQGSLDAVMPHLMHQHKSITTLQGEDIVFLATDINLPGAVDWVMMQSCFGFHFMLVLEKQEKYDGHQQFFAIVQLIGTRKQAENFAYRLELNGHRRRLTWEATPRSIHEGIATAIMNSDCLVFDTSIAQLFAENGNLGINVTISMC
Experimental: SIAH1 mediates the K48-linked polyubiquitination of HAUSP. Therefore, for the ubiquitination assay, SIAH1 was incubated in the solution (0.25 mg/1 ml, total 100 μg) containing 20 mM Tris-HCl buffer (pH 8.0), 100 mM NaCl, 1 mM DTT and 40% glycerol and HAUSP (50 μg) was in 50 mM HEPES pH 7.5, 100 mM NaCl, 1 mM TCEP (tris (2-carboxyethyl) phosphine) buffer. […] The E3-ligase auto ubiquitination assay was performed by E3 Ligase Auto-Ubiquitilylation Assay Kit (Abcam, ab139469, UK).

[1] = system: HAUSP levels in SH-SY5Y cells; test: Western blot of HAUSP in cocaine-treated SH-SY5Y cells; conditions: cocaine 200 μM with inhibitor, 24 hr; for HAUSP levels decreased by cocaine in SH-SY5Y cells (western blot): FIG. 14C; for relative protein expression ratios of HAUSP normalized with β-actin: quantified with ImageJ, FIG. 14D

| SMILES | inhibition of K48-linked polyubiquitination of HAUSP mediated by SIAH1 (SIAH1) | HAUSP levels decreased by cocaine in SH-SY5Y cells (western blot) [1] | relative protein expression ratios of HAUSP normalized with β-actin [1] |
| --- | --- | --- | --- |
| COCCNC(=O)c1ccc(Cl)cc1NS(=O)(=O)c1ccccc1C [Compound 2-1, 4-Chloro-N-(2-methoxyethyl)-2-((2-methylphenyl)sulfonamido)benzamide] | can inhibit | can restore | can restore |
| COCCNC(=O)c1ccc(C)cc1NC(=O)c1c(C)cc(C)cc1C [Compound 5-2, N-(2-((2-Methoxyethyl)carbamoyl)-5-methylphenyl)-2,4,6-trimethylbenzamide] | can inhibit | can restore | can restore |
| COCCNC(=O)c1ccc(Br)cc1NC(=O)c1c(C)cc(C)cc1C [Compound 4-2, N-(5-Bromo-2-((2-methoxyethyl)carbamoyl)phenyl)-2,4,6-trimethylbenzamide] | can inhibit | can restore | can restore |
| COCCNC(=O)c1ccc(Cl)cc1NC(=O)c1c(F)cccc1F [Compound 2-5, 4-Chloro-N-(2-methoxyethyl)-2-(2,6-difluorobenzamido)benzamide] | can inhibit | can restore | can restore |
| Cc1ccccc1S(=O)(=O)Nc1ccccc1C(=O)NCCO [Compound 12-2, N-(2-hydroxyethyl)-2-(2-methylphenylsulfonamido)benzamide] | can inhibit | can restore | can restore |
| Cc1ccccc1C(=O)OCCOC(=O)c1ccc(Cl)cc1N [Compound 1-1, 2-((2-Methylbenzoyl)oxy) ethyl 2-amino-4-chlorobenzoate] | can inhibit | can restore | can restore |
| CC(C)(C)C(=O)Oc1ccc(S(=O)(=O)Nc2ccccc2C(=O)NCCO)cc1 [Compound 12-1] | can inhibit | can restore | can restore |
| COCCNC(=O)c1ccc(Cl)cc1NS(=O)(=O)c1c(C)cc(C)cc1C [Compound 2-4, 4-Chloro-N-(2-methoxyethyl)-2-((2,4,6-trimethylphenyl)sulfonamido)benzamide] | can inhibit | can restore | can restore |

Second part, led by results:

| inhibition of K48-linked polyubiquitination of HAUSP mediated by SIAH1 (SIAH1) | SMILES | HAUSP levels decreased by cocaine in SH-SY5Y cells (western blot) [1] | relative protein expression ratios of HAUSP normalized with β-actin [1] |
| --- | --- | --- | --- |
| can inhibit | CCOCCNC(=O)c1ccc(Cl)cc1NC(=O)c1ccccc1C [Compound 6-1, 4-Chloro-N-(2-ethoxyethyl)-2-(2-methylbenzamido)benzamide] | can restore | can restore |
| can inhibit | CCCOCCNC(=O)c1ccc(Cl)cc1NC(=O)c1ccccc1C [Compound 7-1, 4-Chloro-N-(2-propoxyethyl)-2-(2-methylbenzamido)benzamide] | can restore | can restore |
| can inhibit | COCCNC(=O)c1ccccc1NC(=O)c1ccccc1C [Compound 3-2, N-(2-Methoxyethyl)-2-(2-methylbenzamido)benzamide] | can restore | can restore |
| can inhibit | COCCNC(=O)c1ccccc1NS(=O)(=O)c1ccccc1C [Compound 3-1, N-(2-Methoxyethyl)-2-((2-methylphenyl)sulfonamido)benzamide] | can restore | can restore |
| can inhibit | COCCNC(=O)c1ccc(Br)cc1NC(=O)c1ccccc1C [Compound 4-1, 4-Bromo-N-(2-methoxyethyl)-2-(2-methylbenzamido)benzamide] | can restore | can restore |
